From ChEMBL document CHEMBL3046553, “Bioanalytical method development and validation for simultaneous estimation of (R)- and (S)-isomers of S002-333: a potent novel anti-thrombotic agent using LCMS/MS” (Med Chem Res, 2011)

Experiments:
[1] = Half life in New Zealand Oryctolagus cuniculus (rabbit) at 2 mg/kg, iv; format: ADME, organism-based; set-up: dose 2 mg/kg, route intravenous; conditions: in vivo
[2] = Volume of distribution in New Zealand Oryctolagus cuniculus (rabbit) at 2 mg/kg, iv; format: ADME, organism-based; set-up: dose 2 mg/kg, route intravenous; conditions: in vivo
[3] = AUC (0 to infinity) in New Zealand Oryctolagus cuniculus (rabbit) at 2 mg/kg, iv; format: ADME, organism-based; set-up: time infinity, dose 2 mg/kg, route intravenous; conditions: plasma
[4] = Initial plasma concentration in New Zealand Oryctolagus cuniculus (rabbit) at 2 mg/kg, iv; format: ADME, organism-based; set-up: dose 2 mg/kg, route intravenous
[5] = Clearance in New Zealand Oryctolagus cuniculus (rabbit) at 2 mg/kg, iv; format: ADME, organism-based; set-up: dose 2 mg/kg, route intravenous; conditions: in vivo
Plasma = assay: Drug recovery in New Zealand Oryctolagus cuniculus (rabbit) plasma at 1.56 to 400 ng/ml; format: ADME, cell-free

SMILES | half-life [1] [h] | Vd [2] [L/kg] | AUC(0-inf) [3] [ng·h/mL] | C0 [4] [ng/mL] | clearance [5] [mL/min/kg] | Drug recovery (Plasma) [%]
COc1ccc(S(=O)(=O)N2Cc3[nH]c4ccccc4c3C[C@@H]2C(N)=O)cc1 | 3.84 | 22 | 568 | 288 | 64.7 | 53.21
COc1ccc(S(=O)(=O)N2Cc3[nH]c4ccccc4c3C[C@H]2C(N)=O)cc1 [S007-1558 (S)] | 4.01 | 29.8 | 436 | 276 | 84.3 | 40.88
